From patent US20100216767A1, “QUINAZOLINES FOR PDK1 INHIBITION” (priority 2006, published 2010)

Biological target: T1, PDK1 kinase (Homo sapiens, UniProt O15530)
T1 sequence (O15530 1-556): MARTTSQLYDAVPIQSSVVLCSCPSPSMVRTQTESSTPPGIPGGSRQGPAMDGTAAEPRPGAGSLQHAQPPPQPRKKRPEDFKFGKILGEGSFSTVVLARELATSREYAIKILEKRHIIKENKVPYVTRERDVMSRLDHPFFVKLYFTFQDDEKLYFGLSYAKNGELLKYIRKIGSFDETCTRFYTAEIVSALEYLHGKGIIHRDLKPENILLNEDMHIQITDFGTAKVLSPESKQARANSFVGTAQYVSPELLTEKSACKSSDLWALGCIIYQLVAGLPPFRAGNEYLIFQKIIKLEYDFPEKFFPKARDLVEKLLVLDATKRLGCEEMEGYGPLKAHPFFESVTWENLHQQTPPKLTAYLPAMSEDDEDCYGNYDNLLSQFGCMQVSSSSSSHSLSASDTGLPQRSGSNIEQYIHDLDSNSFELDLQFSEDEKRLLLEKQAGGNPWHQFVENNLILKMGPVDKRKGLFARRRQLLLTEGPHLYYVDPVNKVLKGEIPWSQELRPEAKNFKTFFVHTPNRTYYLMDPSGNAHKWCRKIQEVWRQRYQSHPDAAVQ
Test: PDK1 Kinase Alpha Screen Assay
Assay type: biochemical
Conditions: Table 1; 10 μM ATP, 50 nM PDK1-4 peptide
Procedure: Reagents/Concentrations: The PDK1-4 peptide substrate, biotin-[…]-NH2, (SEQ ID NO: 1), was purchased from the Tufts University Core Facility. The final concentration of PDK1-4 peptide substrate was 50 nM. The ATP substrate (adenosine-[…] triphosphate) was purchased from Roche Diagnostics. The final concentration of ATP substrate was 10 μM. Phospho-(Ser/Thr) PKA substrate antibody was purchased from Cell Signaling Technology. The final concentration of antibody was 0.3 mg/mL. The Alpha Screen Protein A detection kit containing donor and acceptor beads was purchased from PerkinElmer Life Sciences. The final concentration of both donor and acceptor beads was 25 μg/mL. Alpha Screen was used for detection. The biotinylated-PDK1-4 peptide was phosphorylated by PDK1 kinase using the ATP substrate. The biotinylated-PDK1-4 peptide substrate was bound to the streptavidin coated donor bead. The antibody was bound to the protein A coated acceptor bead. The antibody bound to the phosphorylated form of the biotinylated PDK-1 peptide substrate, bringing the donor and acceptor beads into close proximity. Laser irradiation of the donor bead at 680 nm generated a flow of short-lived singlet oxygen molecules. When the donor and acceptor beads were in close proximity, the reactive oxygen generated by the irradiation of the donor beads initiated a luminescence/fluorescence cascade in the acceptor beads. This process led to a highly amplified signal with output in the 530-620 nm range. Assays were carried out in 50 mM Tris, pH=7.5, 10 mM MgCl2, 0.1% BSA, 0.01% Tween-20, 2 mM dithiolthreitol, 2.5% dimethyl sulfoxide. Reactions were stopped by adding 50 mM Tris, pH=7.5, 90 mM EDTA, 0.1% BSA, 0.01% Tween-20.
Procedure: To 10 μl, of PDK1-4 peptide, […] of test compound in dimethyl sulfoxide was added. PDK1 kinase and ATP were mixed, and 10 μL of the PDK1 kinase/ATP mix was added to start the reaction. The reaction was allowed to proceed for 3-18 hours. The reactions were then stopped by adding 10 μL of the EDTA-containing stop buffer. Beads were mixed with antibody, and 25 μL of the bead/antibody mix was then added to the stopped reactions. Plates were incubated at room temperature overnight to allow for detection development before being read. The assay was run in a 384-well format plate.

Structure (SMILES): COc1ncccc1-c1cc(OC)c2nc(Nc3cc(CN(C)C)cc(NC(C)=O)c3)ncc2c1 [Example 94, N-(3-((dimethylamino)-methyl)-5-(8-methoxy-6-(2-methoxypyridin-3-yl)-quinazolin-2-ylamino)-phenyl)acetamide]
- IC50: 5 to 10 µM

Structure (SMILES): COc1cc(-c2cncnc2)cc2cnc(Nc3cc(CN(C)C)cc(NC(C)=O)c3)nc12 [Example 95, N-(3-((dimethylamino)-methyl)-5-(8-methoxy-6-(pyrimidin-5-yl)-quinazolin-2-ylamino)-phenyl)acetamide]
- IC50: < 5 µM

Structure (SMILES): C#Cc1cc2cnc(Nc3ccc(-c4nnn[nH]4)cc3)nc2cc1OC [Example 96, N-(4-(1H-tetrazol-5-yl)-phenyl)-6-ethynyl-7-methoxyquinazolin-2-amine]
- IC50: < 5 µM

Structure (SMILES): C#Cc1cc2cnc(Nc3ccc(-n4cnnn4)cc3)nc2cc1OC [Example 97, N-(4-(1H-tetrozol-1-yl)phenyl)-6-ethynyl-7-methoxyquinazolin-2-amine]
- IC50: < 5 µM

Structure (SMILES): C#Cc1cc2cnc(Nc3cccc(-c4nnn[nH]4)c3)nc2cc1OC [Example 98, N-(3-(1H-tetrazol-5-yl)phenyl)-6-ethynyl-7-methoxyquinazolin-2-amine]
- IC50: < 5 µM

Structure (SMILES): C#Cc1ccc2nc(Nc3ccc(N4CCOCC4)cc3)ncc2c1Cl [Example 99, 5-chloro-6-ethynyl-N-(4-morpholinophenyl)quinazolin-2-amine]
- IC50: < 5 µM

Structure (SMILES): c1csc(-c2ccc3nc(Nc4ccc(N5CCOCC5)cc4)ncc3c2)n1 [Example 100, N-(4-morpholinophenyl)-6-(thiazol-2-yl)quinazolin-2-amine]
- IC50: < 5 µM

Structure (SMILES): C#Cc1cc(OC)c2nc(Nc3ccc(N4CCOCC4)cc3)ncc2c1Cl [Example 101, 5-chloro-6-ethynyl-8-methoxy-N-(4-morpholinophenyl)-quinazolin-2-amine]
- IC50: < 5 µM

Structure (SMILES): COc1cc2nc(Nc3ccc(C(=O)N4CCOCC4)c(Cl)c3)ncc2cc1Br [Example 102, (4-(6-bromo-7-methoxy-quinazolin-2-ylamino)-2-chlorophenyl)(morpholino)-methanone]
- IC50: < 5 µM

Structure (SMILES): C#Cc1cc2cnc(Nc3cccc(-n4cnnn4)c3)nc2cc1OC [Example 103, N-(3-(1H-tetrazol-1-yl)phenyl)-6-ethynyl-7-methoxyquinazolin-2-amine]
- IC50: < 5 µM

Structure (SMILES): COc1cc2nc(Nc3ccc(C(=O)N4CCOCC4)c(Cl)c3)ncc2cc1-c1nccs1 [Example 104]
- IC50: < 5 µM

Structure (SMILES): C#Cc1ccc2nc(Nc3cc(NC(C)=O)cc(NC(C)=O)c3)ncc2c1 [Example 105, N,N′-(5-(6-ethynyl-quinazolin-2-ylamino)-1,3-phenylene)diacetamide]
- IC50: < 5 µM

Structure (SMILES): C#Cc1ccc2nc(Nc3ccc(C(=O)NC(C)C)cc3)ncc2c1Cl [Example 106, 4-(5-chloro-6-ethynyl-quinazolin-2-ylamino)-N-isopropylbenzamide]
- IC50: < 5 µM

Structure (SMILES): C#Cc1ccc2nc(Nc3ccc(C(=O)NC4CC4)cc3)ncc2c1Cl [Example 107, 4-(5-chloro-6-ethynyl-quinazolin-2-ylamino)-N-cyclopropylbenzamide]
- IC50: < 5 µM

Structure (SMILES): COc1ccc2nc(Nc3cc(CN(C)C)cc(NC(C)=O)c3)ncc2c1 [Example 109, N-(3-((dimethylamino)-methyl)-5-(6-methoxy-quinazolin-2-ylamino)-phenyl)acetamide]
- IC50: < 5 µM

Structure (SMILES): COc1cncc(-c2cc(OC)c3nc(Nc4cc(CN(C)C)cc(NC(C)=O)c4)ncc3c2)n1 [Example 110, N-(3-((dimethylamino)-methyl)-5-(8-methoxy-6-(6-methoxypyrazin-2-yl)quinazolin-2-ylamino)phenyl)acetamide]
- IC50: < 5 µM

Structure (SMILES): COc1nc(N)ncc1-c1cc(OC)c2nc(Nc3cc(CN(C)C)cc(NC(C)=O)c3)ncc2c1 [Example 111, N-(3-(6-(2-amino-4-methoxypyrimidin-5-yl)-8-methoxyquinazolin-2-ylamino)-5-((dimethyl-amino)methyl)-phenyl)-acetamide]
- IC50: 5 to 10 µM

Structure (SMILES): COc1cc2nc(Nc3cccc(-n4cnnn4)c3)ncc2cc1-c1nccs1 [Example 112, N-(3-(1H-tetrazol-1-yl)phenyl)-7-methoxy-6-(thiazol-2-yl)quinazolin-2-amine]
- IC50: < 5 µM

Structure (SMILES): C#Cc1cc(OC)c2nc(Nc3ccc(C(=O)N4CCOCC4)cc3)ncc2c1Cl [Example 113, (4-(5-chloro-6-ethynyl-8-methoxyquinazolin-2-ylamino)phenyl)-(morpholino)methanone]
- IC50: < 5 µM

Structure (SMILES): C#Cc1cc(OC)c2nc(Nc3ccc(C(=O)NC(C)C)cc3)ncc2c1Cl [Example 114, 4-(5-chloro-6-ethynyl-8-methoxyquinazolin-2-ylamino)-N-isopropyl-benzamide]
- IC50: < 5 µM

Structure (SMILES): COc1cc(-c2nccs2)c(Cl)c2cnc(Nc3ccc(N4CCOCC4)cc3)nc12 [Example 115, 5-chloro-8-methoxy-N-(4-morpholinophenyl)-6-(thiazol-2-yl)quinazolin-2-amine]
- IC50: < 5 µM

Structure (SMILES): COc1cc(Br)c(Cl)c2cnc(Nc3ccc(N4CCOCC4)cc3)nc12 [Example 116, 6-bromo-5-chloro-8-methoxy-N-(4-morpholinophenyl)-quinazolin-2-amine]
- IC50: < 5 µM

Structure (SMILES): COc1cc(-c2nccs2)c(Cl)c2cnc(Nc3ccc(C(=O)N4CCOCC4)cc3)nc12 [Example 117, (4-(5-chloro-8-methoxy-6-(thiazol-2-yl)quinazolin-2-ylamino)phenyl)-(morpholino)-methanone]
- IC50: < 5 µM

Structure (SMILES): COc1cc(Br)c(Cl)c2cnc(Nc3ccc(C(=O)N4CCOCC4)cc3)nc12 [Example 118, (4-(6-bromo-5-chloro-8-methoxyquinazolin-2-ylamino)phenyl)-(morpholino)-methanone]
- IC50: < 5 µM

Structure (SMILES): COc1cc(-c2nccs2)c(Cl)c2cnc(Nc3ccc(C(=O)NC(C)C)cc3)nc12 [Example 119, 4-(5-chloro-8-methoxy-6-(thiazol-2-yl)quinazolin-2-ylamino)-N-isopropyl-benzamide]
- IC50: < 5 µM

Structure (SMILES): C#Cc1cc2cnc(Nc3ccc(C(=O)N4CCOCC4)c(Cl)c3)nc2cc1OC [Example 120, (2-chloro-4-(6-ethynyl-7-methoxyquinazolin-2-ylamino)phenyl)-(morpholino)methanone]
- IC50: < 5 µM

Structure (SMILES): C#Cc1ccc2nc(Nc3cccc(N4CCOCC4)c3)ncc2c1Cl [Example 121, 5-chloro-6-ethynyl-N-(3-morpholinophenyl)-quinazolin-2-amine]
- IC50: < 5 µM

Structure (SMILES): COc1cc2nc(Nc3cc(CN(C)C)cc(NC(C)=O)c3)ncc2cc1-c1nccs1 [Example 122, N-(3-((dimethylamino)-methyl)-5-(7-methoxy-6-(thiazol-2-yl)quinazolin-2-ylamino)phenyl)acetamide]
- IC50: < 5 µM

Structure (SMILES): NC(=O)c1cc(Nc2ncc3cc(Br)ccc3n2)ccc1N1CCOCC1 [Example 123, 5-(6-bromoquinazolin-2-ylamino)-2-morpholino-benzamide]
- IC50: 5 to 10 µM

Structure (SMILES): C#Cc1ccc2nc(Nc3ccc(N4CCOCC4)c(C(N)=O)c3)ncc2c1 [Example 124, 5-(6-ethynylquinazolin-2-ylamino)-2-morpholino-benzamide]
- IC50: < 5 µM

Structure (SMILES): C#Cc1ccc2nc(Nc3cc(CN4CCOCC4)cc(NC(C)=O)c3)ncc2c1 [Example 125, N-(3-(6-ethynylquinazolin-2-ylamino)-5-(morpholino-methyl)phenyl)acetamide]
- IC50: < 5 µM

Structure (SMILES): CC(=O)Nc1cc(CN2CCCC2)cc(Nc2ncc3cc(-c4nccs4)ccc3n2)c1 [Example 126, N-(3-(pyrrolidin-1-ylmethyl)-5-(6-(thiazol-2-yl)quinazolin-2-ylamino)-phenyl)acetamide]
- IC50: < 5 µM
